Results taken from PMC5066224, “A Novel Resveratrol Based Tubulin Inhibitor Induces Mitotic Arrest and Activates Apoptosis in Cancer Cells” (Scientific Reports, 2016).

What was measured:
[1] = test system: HEK293T; assay: Trypan blue dye exclusion cell viability assay; format: cell-based, human; settings: 1-20 μM, compared to most of the cancer cells
Experimental: (§1) The effect of SS28 on viability of CEM, Reh, Nalm6, SUDHL8, Molt4, A549, HeLa 293T, mouse embryonic fibroblast (MEF) and PBMC was determined by trypan blue dye exclusion assay as described previously. Briefly, cells (0.75 × 10^5 cells/ml) were treated with increasing concentrations of SS28 (1, 5, 10 and 20, μM) for 48 and 72 h. DMSO treated cells were used as the vehicle control. Cells were harvested and subjected to trypan blue assay. Data from a minimum of three independent experiments is presented as a histogram with error bars.

[2] = test system: several cancer cell lines; assay: Cytotoxicity in cancer cell lines ex vivo (summary); format: cell-based
Experimental: as §1

[3] = test system: purified Tubulin; assay: Circular dichroism of Tubulin with SS28; format: binding; settings: Tubulin 1 μM in PEM buffer, 200-260 nm, 4 °C
Experimental: Purified Tubulin (1 μM) was resuspended in PEM buffer (80 mM PIPES (pH 6.9), 2 mM MgCl2, 0.5 mM EGTA, 1.0 mM GTP and 5% glycerol) and CD spectrum was recorded at a wavelength of 200 to 260 nm (4 °C) on a JASCO J-810 spectropolarimeter. 3 cycles were acquired for each sample at a scan speed of 100 nm/sec. Increasing concentration of SS28 (500 pM, 1, 10, 100 and 1000 nM) was incubated with Tubulin (1 μM) in PEM buffer and the spectrum was recorded. Spectral measurements were taken for buffer alone and buffer containing DMSO were subtracted from experimental data. The molar ellipticity was calculated using Spectra Manager software and plotted as a function of wavelength.

[4] = test system: A549 cells; assay: Immunofluorescence microscopy of spindle microtubule organisation; format: cell-based, human; settings: 24 h
Experimental: Immunofluorescence microscopy was performed as previously described. A549 cells were grown on coverslips coated with gelatin (0.1%). […] After 24 h of the treatment nonspecific antibody binding sites were blocked using FBS following which cells were incubated with antitubulin antibody (1:500) at RT. Coverslips were washed in PBS, incubated in biotinylated antimouse secondary antibody (1:500; RT for 1 h) followed by Streptavidin-FITC (1:200). Finally, cells were mounted with DABCO and images were captured using Zeiss Fluorescence microscope and analyzed using Axio vision software. Colchicine treated cells were used as a positive control.

[5] = test system: Tubulin polymerisation in CEM cells; assay: Cell based microtubule assembly (Tubulin polymerisation) assay; set-up: species or system Human; settings: CEM, 2, 5 and 10 μM, 24 h, pellet fraction α-Tubulin immunoblot
Experimental: Separation of insoluble polymerized Tubulin from soluble Tubulin dimers was performed as described. In brief, CEM cells (1 × 10^6) were treated with 2, 5 and 10 μM of SS28 for 24 h. Cells were harvested and washed with PBS before adding polymerization lysate buffer containing 20 mM Tris-HCl (pH 6.8), 1 mM MgCl2, 2 mM EGTA, […], 1 mM phenylmethylsulfonyl fluoride, 1 mM orthovanadate and 0.5% NP-40. After centrifugation of the lysates at 15,000 × g for 10 min at 4 °C, the pellets were resuspended in SDS-PAGE loading buffer and dissolved by heating at 95 °C for 10 min. α-Tubulin was then immunoblotted for the pellet fraction containing polymerized microtubules and supernatants containing depolymerised microtubules were equalised and resolved on 8% SDS PAGE.

[6] = test system: A549 cells; assay: Immunoblotting of cell cycle and apoptotic proteins; format: cell-based, human; settings: A549, 5 μM, 24, 48 and 72 h
Experimental: Cell lysate was prepared after treating with SS28 (5 μM for 24, 48 and 72 h) from CEM and A549 cell lines. In brief, cells were harvested, washed with PBS, resuspended in lysis buffer (RIPA, 25 mM Tris (pH 7.6), 150 mM NaCl, 1% NP-40, 1% sodium deoxycholate and 0.1% SDS) containing protease inhibitors. The protein lysate was cleared by centrifugation (14,000 rpm, for 15 min). The protein concentration in the supernatant was determined using the Bradford’s assay.
For western blot analysis, ~40 μg proteins were resolved over 8–10% SDS–polyacrylamide gel[60][61][62]. Following gel electrophoresis, proteins were transferred to PVDF membrane (Millipore, USAQ9). The primary antibodies used were against Caspase 3, Caspase 9, p73, p53, KU70, KU80, Cyclin B1, CDK6, PARP1 and Actin (Santa Cruz Biotechnology, USA). The membrane was incubated with appropriate HRP-conjugated secondary antibody (2 h at 4° C). The blots were developed using chemiluminescent solution (Immobilon^TM western, Millipore) and scanned by gel documentation system (LAS 3000, FUJI, Japan). Blots were stripped subsequently as per standard protocols and reprobed with anti β-Actin antibody.

[7] = test system: EAC cells tumor; assay: Antitumor activity in EAC solid tumor mouse model; format: in vivo; settings: EAC tumor BALB/c mice, 15 mg/kg oral, nine doses every alternate day from 12th day, up to 28 days
Experimental: EAC cells were collected from donor mice (Swiss albino) and resuspended in sterile saline. A fixed number of viable cells were injected into the peritoneal cavity of each recipient mouse and were allowed to multiply. The cells were withdrawn, diluted in saline and injected (15 × 10^5 cells/animal) into the right thigh tissue of experimental animals for developing solid tumor.
A total number of 30 BALB/c mice were divided into three batches and were used for the present study. EAC cells (15 × 10^5 cells/animal) were injected into right thigh for the development of solid tumor as described previously. Among the 10 animals in each batch, 5 animals served as tumor control and the rest 5 animals received SS28 treatment (15 mg/kg b.wt.) by oral administration using gastric gavage. The dose used was selected based on preliminary studies. The first dose was given after 12th day of tumor development (9 doses over a period of 3 weeks). The diameter of developing tumor was measured using vernier calipers at alternative days for entire life span of tumor animal and tumor volume was calculated using the formula V = 0.5 × a × b^2, where “a” and “b” indicates the major and minor diameter, respectively.

For COc1cc(/C=C/c2ccc(C)cc2)cc(OC)c1OC [SS28, (E)-1,2,3-trimethoxy-5-(4-methylstyryl)benzene], the “cytotoxicity on normal cell line” value [1] was “limited cytotoxicity”, the IC50 [2] was 3 to 5 µM and the “concentration from which a shift in the CD spectrum of Tubulin was seen” value [3] was at least 500 pM. The “cells displaying abnormal spindle organisation” value ([4]; A549, 5 μM) was ~ 38%, the “Metaphase arrest (number of cells)” value ([4]; A549, 5 μM, total number of cells 78) was 30 and the “Metaphase arrest (number of cells)” value ([4]; A549, 10 μM, total number of cells 387) was 123. For the same compound, the “concentration from which Tubulin polymerisation was inhibited” value [5] was at least 2 µM, the “Caspase 3” value [6] was “showed activation” and the “Caspase 9” value [6] was “increase in the cleaved Caspase 9 level”. The “expression level of Cdk6” value [6] was “increased at 24 h followed by a decrease at 48 and 72 h”, the “expression levels of p73” value [6] was “remained same” and the “level of Cyclin B1” value [6] was “maintained throughout the time period, but with a moderate decrease at 48 h”. For the same compound, the “tumor progression (tumor volume)” value [7] was “no further tumor progression”.
